Measured values reported in US20230013669A1, “Antibacterial Treatment Using a Cannabinoid and an Active Agent” (priority 2019, published 2023).
Values joined by “and” are separate entries in the source; they are usually repeats but may differ in a detail not shown here. Equal entries are not always repeated. Where two headings read alike, the source gives them in different places.

Experiments:
[1] = system: Pseudomonas aeruginosa ATCC 27853 (GN_042); test: Synergy of cannabidiol with cell-wall disrupting agent (CBD MIC in combination, FICI); assay type: cell-based; conditions: for FICI: calculated using MIC of 256 μg/mL for cannabidiol; for MIC: Pseudomonas aeruginosa
Procedure: (§1) The compounds were stored short term at 4° C.
(§2) Analysis was performed using Microsoft Excel.

[2] = system: Pseudomonas aeruginosa FADDI-PA067 (GN_177), Polymyxin resistant; test: as above; assay type: cell-based; conditions: for MIC: Pseudomonas aeruginosa
Procedure: as §1, §2

SMILES: C=C(C)C1CCC(C)=CC1c1c(O)cc(CCCCC)cc1O (stereo not shown) [Cannabidiol, 2-[3-methyl-6-(1-methylethenyl)-2-cyclohexen-1-yl]-5-pentyl-1,3-benzenediol]
- CBD MIC with Cefotetan ([1]; Cefotetan at 64 μg/mL, Pseudomonas aeruginosa ATCC 27853): >256 µg/mL
- CBD MIC with Cefotetan ([1]; Cefotetan at 128 μg/mL): >32 µg/mL
- CBD MIC with Cefotetan ([1]; Cefotetan at 128 μg/mL, Pseudomonas aeruginosa ATCC 27853): >256 µg/mL
- CBD MIC with Ceftazidime ([1]; Ceftazidime at 0.015 μg/mL as headed in Table 64, Pseudomonas aeruginosa ATCC 27853): >256 µg/mL
- CBD MIC with Ceftazidime ([1]; Ceftazidime at 0.031 μg/mL as headed in Table 64, Pseudomonas aeruginosa ATCC 27853): >256 µg/mL
- CBD MIC with Ceftazidime ([1]; Ceftazidime at 0.062 μg/mL as headed in Table 64, Pseudomonas aeruginosa ATCC 27853): >256 µg/mL
- CBD MIC with Ceftazidime ([1]; Ceftazidime at 0.25 μg/mL (Table 66), Pseudomonas aeruginosa ATCC 27853): >32 µg/mL
- CBD MIC with Ceftazidime ([1]; Ceftazidime at 0.25 μg/mL as headed in Table 64, Pseudomonas aeruginosa ATCC 27853): 0.001 µg/mL
- CBD MIC with Ceftazidime ([1]; Ceftazidime at 0.5 μg/mL (Table 66), Pseudomonas aeruginosa ATCC 27853): >32 µg/mL
- CBD MIC with Ceftazidime ([1]; Ceftazidime at 0.5 μg/mL as headed in Table 64, Pseudomonas aeruginosa ATCC 27853): 0.001 µg/mL
- CBD MIC with Ceftazidime ([1]; Ceftazidime at 1 μg/mL (Table 66), Pseudomonas aeruginosa ATCC 27853): >32 µg/mL
- CBD MIC with Ceftazidime ([1]; Ceftazidime at 2 μg/mL (Table 66), Pseudomonas aeruginosa ATCC 27853): 0.001 µg/mL
- CBD MIC with Ceftazidime ([1]; Ceftazidime at 4 μg/mL (Table 66), Pseudomonas aeruginosa ATCC 27853): 0.001 µg/mL
- CBD MIC with Ceftazidime ([1]; Ceftazidime at […] (Table 66), Pseudomonas aeruginosa ATCC 27853): >32 µg/mL
- CBD MIC with Colistin ([1]; Colistin at 1 μg/mL, Pseudomonas aeruginosa ATCC 27853): 0.001 µg/mL
- activity of cannabidiol in combination with Polymyxin B ([1]; Example 1): effective
- Average FICI score ([1]; Example 1, GN_042, cannabidiol + MCC_006636 (Polymyxin B)): 0.265
- Synergy ([1]; Example 1, GN_042, cannabidiol + MCC_006636 (Polymyxin B), synergy when FICI≤0.5): YES
- activity of cannabidiol combined with Polymyxin B ([1]; Example 6): effective
- CBD MIC with Polymyxin B at concentration 0.015625 μg/mL ([1]; Example 6, GN_042): >256 µg/mL
- CBD MIC with Polymyxin B at concentration 0.03125 μg/mL ([1]; Example 6, GN_042): >256 µg/mL
- CBD MIC with Polymyxin B at concentration 0.0625 μg/mL ([1]; Example 6, GN_042): >256 µg/mL
- CBD MIC with Polymyxin B at concentration 0.25 μg/mL ([1]; Example 6, GN_042): >256 µg/mL
- CBD MIC with Polymyxin B at concentration […] ([1]; Example 6, GN_042): >256 µg/mL
- CBD MIC with Polymyxin B at concentration 0.5 μg/mL ([1]; Example 6, GN_042, listed as CBD): 2 µg/mL and 4 µg/mL
- activity of cannabidiol combined with ticarcillin ([1]; Example 13): effective
- activity of cannabidiol combined with ceftazidime ([1]; Example 16): effective
- activity of cannabidiol combined with aztreonam ([1]; Example 18): effective
- activity of cannabidiol combined with octapeptin C4 ([1]; Example 21): effective
- activity of cannabidiol in combination with MCC_8980 ([1]; Example 24): effective
- FICI range ([1]; Pseudomonas aeruginosa ATCC 27853, CBD with FADDI-287, MIC table (Table 95), listed as CBD): 0.53-4 and 0.56-4
- FICI range ([1]; Pseudomonas aeruginosa ATCC 27853, CBD with FADDI-287, Synergy table (Table 97)): No Synergy
- FICI range ([1]; Pseudomonas aeruginosa ATCC 27853, CBD with MCC_8980, MIC table (Table 99), listed as CBD): 0.16-1.06 and 0.19-1.06
- FICI range ([1]; Pseudomonas aeruginosa ATCC 27853, CBD with MCC_8980, Synergy table (Table 101), listed as CBD): 0.16-0.25 and 0.19-0.26
- FICI range ([1]; Pseudomonas aeruginosa ATCC 27853, CBD with Spero Potentiator SPR741, MIC table (Table 91)): 1.01-1.25
- FICI range ([1]; Pseudomonas aeruginosa ATCC 27853, CBD with Spero Potentiator SPR741, Synergy table (Table 93)): No Synergy
- FICI range ([1]; Pseudomonas aeruginosa ATCC 27853, CBD with Spero SPR206, Synergy table): No Synergy
- CBD MIC with FADDI-287 ([1]; Pseudomonas aeruginosa ATCC 27853, FADDI-287 at 0.5 μg/mL, listed as CBD): 16 µg/mL
- CBD MIC with MCC_8980 ([1]; Pseudomonas aeruginosa ATCC 27853, MCC_8980 at 8 μg/mL, listed as CBD): 16 µg/mL
- CBD MIC with MCC_8980 ([1]; Pseudomonas aeruginosa ATCC 27853, MCC_8980 at 16 μg/mL, listed as CBD): 2 µg/mL
- FICI ([1]; Pseudomonas aeruginosa ATCC 27853, cannabidiol with FADDI-287 at 0.25 μg/mL): 1.25
- FICI ([1]; Pseudomonas aeruginosa ATCC 27853, cannabidiol with FADDI-287 at 0.5 μg/mL): 0.5312 and 0.5625
- FICI ([1]; Pseudomonas aeruginosa ATCC 27853, cannabidiol with FADDI-287 at 1 μg/mL): 1
- FICI ([1]; Pseudomonas aeruginosa ATCC 27853, cannabidiol with FADDI-287 at 2 μg/mL): 2
- FICI ([1]; Pseudomonas aeruginosa ATCC 27853, cannabidiol with FADDI-287 at 4 μg/mL): 4
- FICI ([1]; Pseudomonas aeruginosa ATCC 27853, cannabidiol with MCC_8980 at 0.5 μg/mL): 1.008
- FICI ([1]; Pseudomonas aeruginosa ATCC 27853, cannabidiol with MCC_8980 at 1 μg/mL): 1.016
- FICI ([1]; Pseudomonas aeruginosa ATCC 27853, cannabidiol with MCC_8980 at 4 μg/mL): 1.0625
- FICI ([1]; Pseudomonas aeruginosa ATCC 27853, cannabidiol with MCC_8980 at 8 μg/mL): 0.1562 and 0.1875
- FICI ([1]; Pseudomonas aeruginosa ATCC 27853, cannabidiol with MCC_8980 at 16 μg/mL): 0.2539 and 0.2578
- FICI ([1]; Pseudomonas aeruginosa ATCC 27853, cannabidiol with SPR741 at 0.5 μg/mL): 1.008
- FICI ([1]; Pseudomonas aeruginosa ATCC 27853, cannabidiol with SPR741 at 1 μg/mL): 1.016
- FICI ([1]; Pseudomonas aeruginosa ATCC 27853, cannabidiol with SPR741 at 4 μg/mL): 1.0625
- FICI ([1]; Pseudomonas aeruginosa ATCC 27853, cannabidiol with SPR741 at 16 μg/mL): 1.25
- MIC ([1]; ATCC27853, MCC_6442 at 4 μg/mL, Pseudomonas aeruginosa ATCC 27853, read-out: CBD MIC with MCC_6442): 0.001 µg/mL
- MIC ([1]; ATCC27853, Octapeptin C4 at 4 μg/mL, read-out: CBD MIC with Octapeptin C4): 0.001 µg/mL
- MIC ([1]; ATCC27853, Pseudomonas aeruginosa ATCC 27853, FADDI-287 at 0.5 μg/mL, read-out: CBD MIC with FADDI-287): 8 µg/mL
- MIC ([1]; ATCC27853, Pseudomonas aeruginosa ATCC 27853, FADDI-287 at 1 μg/mL, read-out: CBD MIC with FADDI-287): 0.001 µg/mL
- MIC ([1]; ATCC27853, Pseudomonas aeruginosa ATCC 27853, FADDI-287 at 2 μg/mL, read-out: CBD MIC with FADDI-287): 0.001 µg/mL
- MIC ([1]; ATCC27853, Pseudomonas aeruginosa ATCC 27853, FADDI-287 at 4 μg/mL, read-out: CBD MIC with FADDI-287): 0.001 µg/mL
- MIC ([1]; ATCC27853, Pseudomonas aeruginosa ATCC 27853, MCC_8980 at 8 μg/mL, read-out: CBD MIC with MCC_8980): 8 µg/mL
- MIC ([1]; ATCC27853, Pseudomonas aeruginosa ATCC 27853, MCC_8980 at 16 μg/mL, read-out: CBD MIC with MCC_8980): 1 µg/mL
- MIC ([1]; ATCC27853, Spero SPR206 at 0.25 μg/mL, 1st of 3 experiments, read-out: CBD MIC with Spero SPR206): > 256 µg/mL
- MIC ([1]; ATCC27853, Spero SPR206 at 0.25 μg/mL, 3rd of 3 experiments, read-out: CBD MIC with Spero SPR206): > 256 µg/mL
- MIC ([1]; ATCC27853, Spero SPR206 at 0.5 μg/mL, 1st of 3 experiments, read-out: CBD MIC with Spero SPR206): > 256 µg/mL
- MIC ([1]; ATCC27853, Spero SPR206 at 0.5 μg/mL, 3rd of 3 experiments, read-out: CBD MIC with Spero SPR206): > 256 µg/mL
- MIC ([1]; ATCC27853, Spero SPR206 at 1 μg/mL, 1st of 3 experiments, read-out: CBD MIC with Spero SPR206): 0.001 µg/mL
- MIC ([1]; ATCC27853, Spero SPR206 at 1 μg/mL, 3rd of 3 experiments, read-out: CBD MIC with Spero SPR206): > 256 µg/mL
- MIC ([1]; ATCC27853, Spero SPR206 at 2 μg/mL, 1st of 3 experiments, read-out: CBD MIC with Spero SPR206): 0.001 µg/mL
- MIC ([1]; ATCC27853, Spero SPR206 at 2 μg/mL, 3rd of 3 experiments, read-out: CBD MIC with Spero SPR206): > 256 µg/mL
- MIC ([1]; ATCC27853, Spero SPR206 at 4 μg/mL, 1st of 3 experiments, read-out: CBD MIC with Spero SPR206): 0.001 µg/mL
- MIC ([1]; ATCC27853, Spero SPR206 at 4 μg/mL, 3rd of 3 experiments, read-out: CBD MIC with Spero SPR206): > 256 µg/mL
- CBD MIC with Ticarcillin ([1]; Ticarcillin at 16 μg/mL, Pseudomonas aeruginosa ATCC 27853): 0.001 µg/mL
- CBD MIC with Ticarcillin ([1]; Ticarcillin at 32 μg/mL, Pseudomonas aeruginosa ATCC 27853): 0.001 µg/mL
- CBD MIC with Ticarcillin ([1]; Ticarcillin at 64 μg/mL, Pseudomonas aeruginosa ATCC 27853): 0.001 µg/mL
- cannabidiol combined with Polymyxin B: synergy ([2]; Example 8): synergy
- MIC ([2]; read-out: CBD MIC with MCC_00636 at concentration 0.015625 μg/mL): > 256 µg/mL
- MIC ([2]; read-out: CBD MIC with MCC_00636 at concentration 0.03125 μg/mL): > 256 µg/mL
- MIC ([2]; read-out: CBD MIC with MCC_00636 at concentration 0.0625 μg/mL): > 256 µg/mL
- MIC ([2]; read-out: CBD MIC with MCC_00636 at concentration 0.25 μg/mL): > 256 µg/mL
- MIC ([2]; read-out: CBD MIC with MCC_00636 at concentration 0.5 μg/mL): 4 µg/mL
- MIC ([2]; read-out: CBD MIC with MCC_00636 at concentration 1 μg/mL): 0.5 µg/mL
- MIC ([2]; read-out: CBD MIC with MCC_00636 at concentration 2 μg/mL): 0.000977 µg/mL
- MIC ([2]; read-out: CBD MIC with MCC_00636 at concentration 4 μg/mL): 0.000977 µg/mL
- MIC ([2]; read-out: CBD MIC with MCC_00636 at concentration […]): > 256 µg/mL
